# Columns and labels:
# Assay in all cases: relative viability (nuclei count vs DMSO), 5 days (fraction); higher = more cells survive
# [1] = compound: C1CC(C1)(C(=O)O)C(=O)O.[NH2-].[NH2-].[Pt+2] [Carboplatin] + N=C(N)NC(=N)NCCc1ccccc1 [Phenformin] (partner 250 µM)
# In short: (§1)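 Lung cancer cell lines, seeded in 1536-well plates, were treated the following day by pin tool with a single drug or with five library-drug doses (not always all listed) in √10 steps on top of a fixed anchor-drug dose. Cells were fixed and nuclei stained in one step after 5 days, and nuclei were counted. Relative viability is the nuclei count for treated wells divided by that for vehicle wells, reported as medians of duplicate plates.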
# [2] = compound: CC[C@H](C)N1C=C(C2=C(C=C(C=C21)C3=CN=C(C=C3)N4CCNCC4)C(=O)NCC5=C(C=C(NC5=O)C)C)C [GSK126] + C[C@@H](Oc1cc(-c2cnn(C3CCNCC3)c2)cnc1N)c1c(Cl)ccc(F)c1Cl [Crizotinib] (partner 1 µM)
# In short: as §1
# [3] = compound: CC[C@H](C)N1C=C(C2=C(C=C(C=C21)C3=CN=C(C=C3)N4CCNCC4)C(=O)NCC5=C(C=C(NC5=O)C)C)C [GSK126] + N=C(N)NC(=N)NCCc1ccccc1 [Phenformin] (partner 250 µM)
# In short: as §1
# [4] = compound: NS(=O)(=O)OC[C@@H]1C[C@@H](n2ccc3c(N[C@H]4CCc5ccccc54)ncnc32)C[C@@H]1O [MLN4924] + Cc1cc(Nc2cc(N3CCN(C)CC3)nc(Sc3ccc(NC(=O)C4CC4)cc3)n2)n[nH]1 [Tozasertib] (partner 0.1 µM)
# In short: as §1
Cell Line,relative viability ([1]; first compound 0.08 µM),relative viability ([1]; first compound 0.253 µM),relative viability ([1]; first compound 0.8 µM),relative viability ([1]; first compound 2.53 µM),relative viability ([1]; first compound 8 µM),relative viability ([2]; first compound 0.08 µM),relative viability ([2]; first compound 0.253 µM),relative viability ([2]; first compound 0.8 µM),relative viability ([2]; first compound 2.53 µM),relative viability ([2]; first compound 8 µM),relative viability ([3]; first compound 0.08 µM),relative viability ([3]; first compound 0.253 µM),relative viability ([3]; first compound 0.8 µM),relative viability ([3]; first compound 2.53 µM),relative viability ([3]; first compound 8 µM),relative viability ([4]; first compound 0.04 µM),relative viability ([4]; first compound 0.1265 µM),relative viability ([4]; first compound 0.4 µM),relative viability ([4]; first compound 1.265 µM),relative viability ([4]; first compound 4 µM)
NCI-H650,0.495,0.451,0.398,0.428,0.398,0.912,0.741,0.658,0.755,0.594,0.431,0.464,0.445,0.437,0.472,0.584,0.356,0.307,0.161,0.187
NCI-H2170,0.429,0.446,0.402,0.38,0.41,1.32,1.15,1.16,1.09,1.23,0.386,0.427,0.393,0.391,0.376,0.722,0.407,0.325,0.151,0.155
LC-2-ad,0.661,0.551,0.525,0.517,0.386,0.484,0.357,0.512,0.454,0.398,0.627,0.634,0.583,0.56,0.642,0.434,0.344,0.362,0.218,0.198
NCI-H322M,0.884,0.738,0.775,0.74,0.712,0.965,0.887,0.833,1.03,0.873,0.826,0.787,0.849,0.875,0.817,0.479,0.537,0.434,0.26,0.325
LCLC-97TM1,0.483,0.399,0.421,0.438,0.394,0.337,,0.42,0.475,0.441,0.359,0.459,0.455,0.389,0.374,0.222,0.158,0.172,0.121,0.112
NCI-H596,0.871,0.767,0.768,0.638,0.67,1.04,0.98,0.863,1.06,0.891,0.913,0.761,0.751,0.948,0.829,0.819,0.987,,0.514,0.528
NCI-H1944,0.217,0.193,0.186,0.181,0.181,1.3,1.08,1.1,1.05,1.23,0.194,0.196,0.183,0.168,0.178,0.233,0.226,0.235,0.159,0.117
NCI-H1755,0.65,0.618,0.623,0.604,0.576,0.842,0.915,0.898,0.86,0.765,0.656,0.637,0.614,0.562,0.555,0.529,0.411,0.291,0.208,0.209
H3255,0.291,0.381,0.395,0.349,0.364,1.02,0.814,0.819,0.866,0.794,0.354,0.382,0.352,0.341,0.368,0.671,0.374,0.339,0.236,0.286
NCI-H23,0.824,0.753,0.768,0.727,0.714,0.662,0.486,0.485,0.523,0.653,0.843,0.792,0.738,0.761,0.77,0.367,0.388,0.235,0.176,0.141

# — the supplement of paper PMC10307832
